Article PMC3711124 (Biochemistry, 2008)
No end group written: not given here.

Experiments:
[1] = Circular dichroism of E5TM in DPC micelles; format: physicochemical; conditions: CD, 5°C-95°C in 10°C increments, 15 mM DPC, pH 7.5, 114 μM peptide
AUC = biological target: the molecule itself; assay: AUC

## Ac-KKKFLGLVAAMQLLLLLFLLLFFLVYWDHK [E5TM]
[1]
  thermal stability of α-helical structure: Only a small decrease in α-helical structure was observed

B1: E5TM peptide (transmembrane domain of the bovine papillomavirus E5 protein, residues F9-H34, with fl (peptide)
peptide: KKKFLGLVAAMQLLLLLFLLLFFLVYWDHK
modifications: also: end-caps on C- and N-termini, not given here
AUC
  stoichiometry N: 2
